The source of these data is US20180193409A1, “PEPTIDYL TPOR ANTAGONISTS AND USES THEREOF” (POLYMERS CRC LIMITED, priority 2015, published 2018).

SMILES strings stand for the structures. Bridge positions count the residues as written; N and C are the ends. Peptide text beside a SMILES is read from it. I, II: the chains in the order shown.

The target of experiment [1] is T1, receptor for human TPO (c-Mpl) (Homo sapiens, UniProt P40238).
T1 construct: expressed in transfected cells; host or cells: FD-Mpl (murine, derived from FDCP-1)
T1 sequence (P40238 26-635): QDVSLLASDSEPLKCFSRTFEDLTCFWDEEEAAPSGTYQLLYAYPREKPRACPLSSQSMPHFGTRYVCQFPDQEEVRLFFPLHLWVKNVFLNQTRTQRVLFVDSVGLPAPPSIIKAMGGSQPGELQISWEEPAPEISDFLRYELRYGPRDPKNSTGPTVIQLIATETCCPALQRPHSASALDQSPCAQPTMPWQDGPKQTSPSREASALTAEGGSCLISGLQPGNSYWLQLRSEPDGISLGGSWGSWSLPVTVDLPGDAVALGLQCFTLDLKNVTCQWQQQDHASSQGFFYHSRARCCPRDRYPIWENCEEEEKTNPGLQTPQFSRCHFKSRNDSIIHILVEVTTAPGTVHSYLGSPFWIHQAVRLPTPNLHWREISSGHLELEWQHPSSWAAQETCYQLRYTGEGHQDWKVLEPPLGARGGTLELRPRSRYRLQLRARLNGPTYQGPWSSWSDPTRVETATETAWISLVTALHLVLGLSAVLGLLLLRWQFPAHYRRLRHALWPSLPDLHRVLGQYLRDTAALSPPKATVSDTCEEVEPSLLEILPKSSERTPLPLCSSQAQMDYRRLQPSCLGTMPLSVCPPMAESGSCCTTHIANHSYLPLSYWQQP
Nature of the experiment: Antagonist assay: proliferation of FD-Mpl cells in media supplemented with rhTPO (ATP-luminescence). It is filed as cell-based. The following applies: murine FD-Mpl cells, 6 or 10 ng/mL rhTPO (LCP also 30 ng/mL), 24 hours; read-out: concentration at which the decrease in normalised cell proliferation occurred (estimated EC50, antagonist assay). As to the method: Bioactivity testing was carried out as follows. All compounds were tested on a murine TPO-dependent cell line FD-Mpl. FD-Mpl cells are derived from the haemopoietic growth factor dependent cell line FDCP-1 and express the receptor for human TPO (c-Mpl)—(as per Winkler, D., Riches, A., Condie, G., Tarasova, A., Andrade, J., White, J., Cablewski, T., Werkmeister, J., Haylock, D. and Meagher, L., ACS Chemical Biology 2010, DOI: 10.1021/cb100100u). […] FD-Mpl cells were counted and resuspended in a mix of cell culture medium with added peptide of interest and incubated at 4° C. for 2 h (for the agonist assay this brief incubation at 4° C. for 2 h was omitted). […]
Cells were then incubated at 37° C. for 24 hours (or 48 hours in the case of the agonist assay) and cell proliferation was assessed as follows. Cells were plated in quadruplicate onto white luminescence detection plates and cell proliferation and viability were assessed by an ATP-luminescence detection assay (CellTiter Glo Luminescent Cell Viability Assay Kit, Promega). Cells were also plated in triplicate and cell morphology was assessed using phase contrast microscopy. […]

Experiment [2] deals with T1, receptor for human TPO (c-Mpl). Nature of the experiment: Agonist assay: proliferation of FD-Mpl cells in the absence of rhTPO (ATP-luminescence). The experiment is classed as cell-based. The conditions noted are these: no rhTPO. As to the method:
Bioactivity testing was carried out as follows. All compounds were tested on a murine TPO-dependent cell line FD-Mpl. FD-Mpl cells are derived from the haemopoietic growth factor dependent cell line FDCP-1 and express the receptor for human TPO (c-Mpl)—(as per Winkler, D., Riches, A., Condie, G., Tarasova, A., Andrade, J., White, J., Cablewski, T., Werkmeister, J., Haylock, D. and Meagher, L., ACS Chemical Biology 2010, DOI: 10.1021/cb100100u). These cells are typically cultured in media supplemented with 10% foetal bovine serum and the cytokines interleukin-3, GM-CSF or TPO (as per Naparstek, E., Pierce, J., Metcalf, D., Shadduck, R., Ihle, J., Leder, A., Sakakeeny, M. A., Wagner, K., Falco, J., Fitzgerald, T. J. and Greenberger, J. S., Blood 1986, 67, 1395-1403). In the absence of either of these factors, FDCP-1 cells rapidly undergo apoptosis (usually within 24 hours). FD-Mpl cells were maintained in DMEM medium with 10% foetal calf serum (FCS) and supplemented with 30 ng/mL of recombinant human TPO (rhTPO, Apollo Cytokine Research). For the antagonist assay, FD-Mpl cells were harvested by centrifugation and the resulting cell pellet was thoroughly washed, twice, with 10 mL PBS to remove residual cytokine. The cells were then resuspended in 5 mL of cell culture medium without rhTPO and incubated at 37° C. for 1 h (or 2 h in the case of the agonist assay; Note: short term withdrawal of rhTPO enhances up-regulation of the TPO receptor, c-Mpl). FD-Mpl cells were counted and resuspended in a mix of cell culture medium with added peptide of interest and incubated at 4° C. for 2 h (for the agonist assay this brief incubation at 4° C. for 2 h was omitted). Following this incubation, cells were supplemented with low doses of TPO (either 6 or 10 ng/mL of rhTPO) and plated at 5000 cells/well/100 μL medium in a 96-well tissue culture plate. […]
Cells were then incubated at 37° C. for 24 hours (or 48 hours in the case of the agonist assay) and cell proliferation was assessed as follows. Cells were plated in quadruplicate onto white luminescence detection plates and cell proliferation and viability were assessed by an ATP-luminescence detection assay (CellTiter Glo Luminescent Cell Viability Assay Kit, Promega). Cells were also plated in triplicate and cell morphology was assessed using phase contrast microscopy.
For the antagonist assay, the cell numbers determined via the luminescence assay were normalised by the cell numbers obtained for FD-Mpl cells cultured in either 6 or 10 ng/mL of rhTPO without added peptide and plotted as a function of the peptide concentration (see FIGS. 1a and b). […] For the agonist assay used with the LCP-PD peptide, the cell numbers were normalised by the cell numbers obtained with media supplemented with 30 ng/mL rhTPO and expressed as a percentage. […]

In the case of `CC(=O)N[C@@H](C)C(=O)N[C@H]1CSSC[C@@H](C(=O)N[C@@H](C)C(=O)O)NC(=O)[C@H](C)NC(=O)[C@H](C)NC(=O)[C@H](C)NC(=O)[C@H](CC(C)C)NC(=O)[C@H](Cc2c[nH]c3ccccc23)NC(=O)[C@H](CCC(N)=O)NC(=O)[C@H](CCCNC(=N)N)NC(=O)[C@H](CC(C)C)NC(=O)[C@H](C)NC(=O)[C@H](C)NC(=O)[C@H](C)NC1=O` [Example 2, AcACAAALRQWLAAACA] (Ac-ACAAALRQWLAAACA-OH; disulfide 2-14), the EC50 in experiment [1] was 20 to 30 µM.
On to `CC[C@H](C)[C@@H]1NC(=O)[C@H](C)NC(=O)[C@@H](NC(=O)[C@H](C)NC(C)=O)CSSC[C@H](NC(=O)[C@H](C)NC(C)=O)C(=O)N[C@@H](C)C(=O)N[C@@H]([C@@H](C)CC)C(=O)N[C@@H](CCC(=O)O)C(=O)NCC(=O)N2CCC[C@H]2C(=O)N[C@@H]([C@@H](C)O)C(=O)N[C@@H](CC(C)C)C(=O)N[C@@H](CCCNC(=N)N)C(=O)N[C@@H](CCC(N)=O)C(=O)N[C@@H](Cc2c[nH]c3ccccc23)C(=O)N[C@@H](CC(C)C)C(=O)N[C@@H](C)C(=O)N[C@@H](C)C(=O)N[C@@H](CCCNC(=N)N)C(=O)N[C@@H](C)C(=O)N[C@@H](C)C(=O)N[C@H](C(=O)N[C@@H](C)C(=O)O)CSSC[C@@H](C(=O)N[C@@H](C)C(=O)O)NC(=O)[C@H](C)NC(=O)[C@H](C)NC(=O)[C@H](CCCNC(=N)N)NC(=O)[C@H](C)NC(=O)[C@H](C)NC(=O)[C@H](CC(C)C)NC(=O)[C@H](Cc2c[nH]c3ccccc23)NC(=O)[C@H](CCC(N)=O)NC(=O)[C@H](CCCNC(=N)N)NC(=O)[C@H](CC(C)C)NC(=O)[C@H]([C@@H](C)O)NC(=O)[C@@H]2CCCN2C(=O)CNC(=O)[C@H](CCC(=O)O)NC1=O` [LCP-PD] (I: Ac-ACAIEGPTLRQWLAARAACA-OH / II: Ac-ACAIEGPTLRQWLAARAACA-OH; disulfide I:2-II:2, I:19-II:19; C-terminus assumed), for which, in experiment [2] (FD-Mpl cells), the “agonist activity at the c-Mpl receptor (in words)” value is “potent agonist”.
Consider `CC[C@H](C)[C@@H]1NC(=O)[C@H](C)NC(=O)[C@@H](NC(=O)[C@H](C)NC(C)=O)CSSC[C@@H](C(=O)N[C@@H](C)C(=O)O)NC(=O)[C@H](C)NC(=O)[C@H](C)NC(=O)[C@H](CCCNC(=N)N)NC(=O)[C@H](C)NC(=O)[C@H](C)NC(=O)[C@H](CC(C)C)NC(=O)[C@H](Cc2c[nH]c3ccccc23)NC(=O)[C@H](CCC(N)=O)NC(=O)[C@H](CCCNC(=N)N)NC(=O)[C@H](CC(C)C)NC(=O)[C@H]([C@@H](C)O)NC(=O)[C@@H]2CCCN2C(=O)CNC(=O)[C@H](CCC(=O)O)NC1=O` [LCP] (Ac-ACAIEGPTLRQWLAARAACA-OH; disulfide 2-19; C-terminus assumed), for which the EC50 in experiment [1] is around 3 µM; in experiment [2] (murine FD-Mpl cells, 48 hours, read-out: concentration at which increased cell proliferation was observed (agonist assay)), around 0.06 µM. In addition, in experiment [2] (FD-Mpl cells, normalised by cell numbers with 30 ng/mL rhTPO), the “efficacy with respect to cell proliferation (agonist assay)” value was determined as 40%.
`CC(=O)N[C@@H](C)C(=O)N[C@H]1CSSC[C@H](NC(=O)[C@H](C)NC(C)=O)C(=O)N[C@@H](C)C(=O)N[C@@H](C)C(=O)N[C@@H](C)C(=O)N[C@@H](CC(C)C)C(=O)N[C@@H](CCCNC(=N)N)C(=O)N[C@@H](CCC(N)=O)C(=O)N[C@@H](Cc2c[nH]c3ccccc23)C(=O)N[C@@H](CC(C)C)C(=O)N[C@@H](C)C(=O)N[C@@H](C)C(=O)N[C@@H](C)C(=O)N[C@H](C(=O)N[C@@H](C)C(=O)O)CSSC[C@@H](C(=O)N[C@@H](C)C(=O)O)NC(=O)[C@H](C)NC(=O)[C@H](C)NC(=O)[C@H](C)NC(=O)[C@H](CC(C)C)NC(=O)[C@H](Cc2c[nH]c3ccccc23)NC(=O)[C@H](CCC(N)=O)NC(=O)[C@H](CCCNC(=N)N)NC(=O)[C@H](CC(C)C)NC(=O)[C@H](C)NC(=O)[C@H](C)NC(=O)[C@H](C)NC1=O` [MCP-PD] (I: Ac-ACAAALRQWLAAACA-OH / II: Ac-ACAAALRQWLAAACA-OH; disulfide I:2-II:2, I:14-II:14; C-terminus assumed): in experiment [2] (FD-Mpl cells), the “agonist activity at the c-Mpl receptor (in words)” value was “reasonably potent agonist”.
